Assay results reported in article PMC10823468, “Design, Synthesis, and Evaluation of New 1H-Benzo[d]imidazole Based PqsR Inhibitors as Adjuvant Therapy for Pseudomonas aeruginosa Infections” (Journal of Medicinal Chemistry, 2024).

Legend:
[1] = tested on: AQ production in P. aeruginosa laboratory strains and CF isolates; experiment: Alkyl quinolone (AQ: HHQ, PQS, HQNO) quantification by LC-MS/MS; type: cell-based, Pseudomonas aeruginosa
Excerpt: PqsR directly regulates the biosynthesis of diverse AQs, of which HHQ and PQS act as QS molecules, while others such as 2-heptyl- 4-hydroxyquinoline N-oxide (HQNO) are potent cytochrome bc1 inhibitors that contribute to the environmental competitiveness of this pathogen.[9],[28] Previous studies have shown that PQS is a multifunctional iron chelator acting via PqsR-dependent and PqsR-independent pathways, contributing directly to iron acquisition and microvesicle formation.[29] […] PqsR inhibition reduces production of AQ, which can be quantified to serve as a direct readout for pqs system inhibition.[9] To this end, 6f was incubated with various P. aeruginosa laboratory strains and CF isolates and its impact on AQ production determined quantitatively using LCMS/MS and compared with untreated samples.
For each test sample, 100 μL of sterile filtered supernatant was spiked with 10 μL of an internal standard solution (10 μM d4-PQS in MeOH) and diluted with water to a total volume of 500 μL. Samples were then extracted three times with an 0.5 mL aliquot of ethyl acetate, vortex mixing the aqueous/organic mix for 2 min, then removing the organic phase once the layers had successfully partitioned. For each sample, the combined organic extracts were dried under vacuum and redissolved in 100 μL of MeOH prior to analysis. For the LC-MS/MS analysis of supernatant extracts, the chromatography was achieved using a Shimadzu series 10AD VP LC system (Columbia, MD, USA). The LC column, maintained at 40 °C, was a Phenomenex Gemini C18 (3.0 μm, 100 mm × 3.0 mm) (Macclesfield, Cheshire, UK) with an appropriate guard column. Mobile phase A was 0.1% (v/v) formic acid in water containing 2 mM 2-picolinic acid, and mobile phase B 0.1% (v/v) formic acid in methanol. The flow rate throughout the chromatographic separation was 450 μL/min. After an injection of a 2 μL/sample, a binary gradient, beginning initially at 30% B, increased linearly to 99% B over 5 min. The composition remained at 99% B for 3 min, decreased to 30% B over 1 min, and stayed at this composition for 4 min, to allow for column equilibration. The MS system used for analyte detection was an Applied Biosystems Qtrap 4000 hybrid triple-quadrupole linear ion trap mass spectrometer (Foster City, CA, USA), equipped with an electrospray ionization (ESI) interface. Instrument control, data collection, and analysis were conducted using Analyst software (Foster City, CA, USA). […] Where chromatographic peaks for HHQ, HQNO, and PQS were detected, a peak area was determined, and analyte peak area/internal standard peak area calcdulated.

[2] = tested on: PAO1-L biofilms; experiment: Biofilm viability assay, method 1 (ciprofloxacin, LIVE/DEAD, CLSM); type: cell-based, Pseudomonas aeruginosa; settings: 6 and 24 h
Procedure: Biofilms are bacterial communities that are highly tolerant to antibiotics.[33] […] Therefore, pharmacological interference with the pqs machinery could sensitize PA biofilms to antibiotics.[34] To evaluate this effect, PAO1-L biofilms were grown for […] in the presence of 6f (method 1). Following treatment with the broad-spectrum antibiotic ciprofloxacin (Cip), the viability of biofilm bacteria was determined using LIVE/DEAD BacLight staining and confocal laser scanning microscopy (CLSM). The effect of 6f on biofilm viability as a single treatment or in combination with subinhibitory concentration of Cip was examined at two different time points (6 and 24 h after treatment) to establish whether this PqsR antagonist enhanced the activity of the antibiotic. […] It is noteworthy that the effect was greater at 6 h treatment compared with 24 h.
Figure 6 (A) Representative CLSM 3D Z-stack images of PAO1-L biofilms after 24 h growth with or without 6f and further treatment for 6 or 24 h with no treatment (control), 6f (10 μM), ciprofloxacin (Cip: 60 μg/mL), or a combination of 6f and Cip (10 μM and 60 μg/mL, respectively). Live bacteria are depicted in green (SYTO9 dye) and dead cells are shown in red color (propidium iodide stain). (B) Biofilm viability assay. Bar chart showing PAO1-L biofilm viability quantified after treatment with different conditions for 6 or 24 h. […]

[3] = design: method as in PMID 33073099; settings: rat microsomes; cited from earlier work
[4] = tested on: pyocyanin production in P. aeruginosa; experiment: Pyocyanin quantification; type: cell-based, Pseudomonas aeruginosa; settings: for pyocyanin production: 6f 200 nM
Procedure: This assay was extended further to investigate the effect of 6f on pyocyanin production in different P. aeruginosa at 6f concentration of 200 nM (Figure 5b).
The experiment was performed following a published protocol with minor modifications. Strains were cultured into 5 mL of fresh medium overnight. […] Cells were centrifuged at 10 000 RCF for 10 min (Allegra 64R centrifuge, Beckman Coulter, High Wycombe, UK), and the supernatant was transferred to 15 mL falcon tubes with a HSW 10 mL Soft-Ject Syringe and a […] Sartorius syringe-driven filter (Fisher Brand, Loughborough, UK). Pyocyanin pigment was extracted into chloroform by mixing 7.5 mL of supernatant with 4.5 mL of chloroform. Pyocyanin was further extracted into 1.5 mL of 0.2 M HCL, which gave a pink/red solution, and the absorbance was measured at 520 nm.[47]

## CC(C)n1c(NCC(O)COc2ccc(CC#N)cc2)nc2ccc(Cl)cc21 (centres unmarked) [Compound 6f, 2-(4-(3-((6-Chloro-1-isopropyl-1H-benzo[d]imidazol-2-yl)amino)-2-hydroxypropoxy)phenyl) Acetonitrile]
[1]; 0.2 μM 6f, IPCD1331
  HHQ and PQS levels: no significant reduction
[1]; 0.2 μM 6f, IPCD1451 CF isolate
  HQNO concentrations: nonsignificant reduction
[1]; 0.2 μM 6f, LESB58 strain
  AQ production: moderate but significant reduction
[1]; 0.2 μM 6f, PAO1-L, PA14 and IPCD48 CF isolate, vs untreated
  HHQ and PQS levels: substantially reduced
[1]; Pseudomonas aeruginosa, read-out: HQNO inhibition
  inhibition at 0.2 µM: 20 to 60%
[2]; 6f 10 μM + Cip 60 μg/mL
  biofilm viability, combination with ciprofloxacin: significant potentiation of antibiotic activity
[2]; 6f 10 μM alone
  biofilm viability, single treatment: no significant effect
[3]
  half-life: relatively short
[4]; IPCD1451
  pyocyanin production: nonsignificant inhibition
[4]; all strains except IPCD1451
  pyocyanin production: inhibited pyocyanin production
[4]; PAO1-L, concentration three times the IC50, relative to DMSO
  inhibition of pyocyanin production: ~80%
